Results: patent publication EP1206474B1, “SULFONYLPHENYLPYRAZOLE COMPOUNDS USEFUL AS COX-2 INHIBITORS” (ABBOTT LABORATORIES, priority 1999, dated 2001)

Experiments:
[1] = system: Human amnionic WISH cells; experiment: IL-1β induced PGE2 production in WISH cells; format: cell-based; conditions: IL-1β induced PGE2, 18 hour incubation; for inhibition at 1 µM: at 1000 nM; for IC50: parenthetical value, read-out: WISH (parenthetical value, IC50 by analogy with Table 1)
Procedure: (§1) EIA reagents for prostaglandin determination were purchased from Perseptive Diagnostics, (Cambridge, MA). Prostaglandin E2 (PGE2) levels in lavage fluids were determined after the samples were dried under nitrogen and reconstituted with assay buffer. PGE2 levels in enzyme assays or cell culture media were measured against standards prepared in the same milieu. The immunoassays were conducted as recommended by the manufacturer. The EIA was conducted in 96 well microtiter plates (Nunc Roskilde, Denmark) and optical density was measured using a microplate reader (Vmax, Molecular Devices Corp., Menlo Park, CA).
Human amnionic WISH cells were grown to 80% confluence in 48 well plates. Following removal of the growth medium and two washings with Gey's Balanced Salt Solution, 5 ng IL-1β/ml (UBI, Lake Placid, NY) was added to the cells with or without test compound in DMSO (0.01% v/v) in Neuman-Tytell Serumless Medium (GIBCO, Grand Island, NY). Following an 18 hour incubation to allow for the maximal induction of PGHS-2, the conditioned medium was removed and assayed for PGE2 content by EIA analysis as described above.
WISH cell values indicate percent inhibition at the particular nanomolar dose level.

[2] = biological target: T1, recombinant human Cox-2 (r-hu Cox-2) (Homo sapiens, UniProt P35354); experiment: Recombinant human PGHS-2 (r-hu Cox-2) enzyme assay, PGE2 by EIA; format: biochemical; conditions: for IC50: parenthetical values indicate IC50, read-out: r-hu COX2 IC50 (parenthetical values); for inhibition at 0.1 µM: at 100 nM; for inhibition at 0.1 µM / inhibition at 10 µM: read-out: r-hu COX2 percent inhibition; for inhibition at 10 µM: at 10000 nM
T1 construct: made in house; host or cells: baculovirus/Sf9 insect cells (microsomes)
T1 sequence (P35354 18-604): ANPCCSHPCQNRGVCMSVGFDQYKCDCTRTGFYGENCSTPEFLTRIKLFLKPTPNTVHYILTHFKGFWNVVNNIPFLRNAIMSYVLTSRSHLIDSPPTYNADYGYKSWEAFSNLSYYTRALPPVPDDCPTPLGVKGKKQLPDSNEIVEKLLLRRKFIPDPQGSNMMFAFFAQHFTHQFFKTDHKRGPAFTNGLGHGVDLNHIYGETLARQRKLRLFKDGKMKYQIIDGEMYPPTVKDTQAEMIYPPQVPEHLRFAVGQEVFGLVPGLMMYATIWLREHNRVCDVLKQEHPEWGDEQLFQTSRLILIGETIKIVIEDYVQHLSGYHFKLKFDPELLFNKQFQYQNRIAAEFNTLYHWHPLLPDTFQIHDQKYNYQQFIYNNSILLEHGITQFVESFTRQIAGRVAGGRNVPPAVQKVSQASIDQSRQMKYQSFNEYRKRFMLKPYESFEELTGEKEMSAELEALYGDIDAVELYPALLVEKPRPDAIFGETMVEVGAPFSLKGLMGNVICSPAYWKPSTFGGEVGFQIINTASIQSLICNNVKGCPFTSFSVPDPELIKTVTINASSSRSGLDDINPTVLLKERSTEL
Procedure: (§2) To compare the mean responses of the treatment groups, analysis of variance was applied. Percent inhibition values were determined by comparing the individual treatment mean values to the mean of the control group. Linear regression was used to estimate IC50's/ED50's in appropriate assays.
as §1
(§3) Inhibition of prostaglandin biosynthesis in vitro was evaluated using recombinant human Cox-1 (r-hu Cox-1) and Cox-2 (r-hu Cox-2) enzyme assays. […] The reaction was allowed to run for 2.5 minutes at room temperature prior to quenching with HCl and neutralization with NaOH. PGE2 production in the presence and absence of the drug was determined by EIA analysis. The EIA was conducted in 96 well microtiter plates (Nunc Roskilde, Denmark) and optical density was measured using a microplate reader (Vmax, Molecular Devices Corp., Menlo Park, CA). EIA reagents for prostaglandin determination were purchased from Perseptive Diagnostics (Cambridge, MA). PGE2 levels were measured against standards prepared in the same milieu. The immunoassays were conducted as recommended by the manufacturer. The compounds are designated by the Example Number. […] Values for Cox-2 inhibition that are parenthetical indicate IC50 values.

[3] = biological target: T2, recombinant human Cox-1 (r-hu Cox-1) (Homo sapiens, UniProt P23219); experiment: Recombinant human PGHS-1 (r-hu Cox-1) enzyme assay, PGE2 by EIA; format: biochemical; conditions: read-out: r-hu COX1 percent inhibition
T2 construct: made in house; host or cells: baculovirus/Sf9 insect cells (microsomes)
Procedure: as §2, §1, §3

[4] = system: male adrenalectomized Sprague-Dawley rats; experiment: Rat carrageenan pleural inflammation (CIP) model; format: in vivo; conditions: 10 milligrams per kilogram body weight, oral, 30 minutes prior to carrageenan; lavage four hours later; inhibition of prostaglandin biosynthesis
Procedure: For oral administration, test compounds were suspended on the day of use in 100% polyethyleneglycol (PEG 400) with a motorized homogenizer equipped with a Teflon-coated pestle (TRI-R Instrument, Jamaica, NY).
as §2, §1
Pleural inflammation was induced in male adrenalectomized Sprague-Dawley rats following the method of Vinegar et al., Fed. Proc. 1976, 35, 2447-2456. […] Eicosanoids were determined by EIA as described above. […]

[5] = Homo sapiens, read-out: WISH percent inhibition

T2 sequence (P23219 24-599): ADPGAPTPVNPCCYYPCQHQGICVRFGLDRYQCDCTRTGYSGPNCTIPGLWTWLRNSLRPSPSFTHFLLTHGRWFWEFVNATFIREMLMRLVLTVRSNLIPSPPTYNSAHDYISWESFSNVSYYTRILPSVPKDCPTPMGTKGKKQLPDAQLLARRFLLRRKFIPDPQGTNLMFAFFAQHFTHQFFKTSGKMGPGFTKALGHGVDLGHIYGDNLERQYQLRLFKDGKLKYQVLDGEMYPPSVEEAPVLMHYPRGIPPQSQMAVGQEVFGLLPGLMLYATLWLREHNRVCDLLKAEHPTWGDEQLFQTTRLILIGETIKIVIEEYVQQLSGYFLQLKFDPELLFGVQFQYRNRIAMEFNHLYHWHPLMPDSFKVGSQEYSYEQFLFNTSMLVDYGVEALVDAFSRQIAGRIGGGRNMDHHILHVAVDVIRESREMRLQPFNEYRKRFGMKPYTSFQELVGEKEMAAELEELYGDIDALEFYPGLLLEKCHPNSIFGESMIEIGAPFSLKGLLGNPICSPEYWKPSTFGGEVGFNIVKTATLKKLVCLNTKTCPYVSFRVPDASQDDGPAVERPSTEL

With CS(=O)(=O)c1ccc(-c2nn3c(c2-c2ccc(F)cc2)OCC3)cc1 [Example 5, 7-(4-Fluorophenyl)-6-(4-(methylsulphonyl)phenyl)-2,3-dihydropyrazolo[5,1-b][1,3]oxazole] the inhibition at 1 µM [1, 5] was 33%.

In the case of CS(=O)(=O)c1ccc(-c2nn3c(c2-c2ccc(F)cc2)OCCC3)cc1 [Example 1, 3-(4-Fluorophenyl)-2-(4-(methylsulphonyl)phenyl)-6,7-dihydro-5H-pyrazolo[5,1-b][1,3]oxazine], the inhibition at 1 µM [1, 5] is reported as 19%, the IC50 [2] is reported as 720 nM and the inhibition at 100 µM [3] is reported as 4%.

CS(=O)(=O)c1ccc(-c2nn3c(C4C5CC6CC(C5)CC4C6)coc3c2-c2ccc(F)cc2)cc1 (stereo not shown) [Example 39, 3-(2-Adamantyl)-7-(4-fluorophenyl)-6-(4-(methylsulphonyl)phenyl)pyrazolo[5,1-b][1,3]oxazole] showed a WISH percent inhibition ([1]; at 0.1 (nM)) of 38% and a WISH percent inhibition ([1]; at 1 (nM)) of 95%.

For CS(=O)(=O)c1ccc(-c2nn3c(-c4ccccc4)coc3c2-c2ccc(F)cc2)cc1 [Example 37, 7-(4-Fluorophenyl)-6-(4-(methylsulphonyl)phenyl)-3-phenylpyrazolo[5,1-b][1,3]oxazole], the “CIP Inh @10mpk” value [4] was 0%.

In the case of CC(C)(C)c1coc2c(-c3ccc(F)cc3)c(-c3ccc(S(N)(=O)=O)cc3)nn12 [Example 55], the inhibition at 0.1 µM [2] is reported as 88% and the inhibition at 10 µM ([3]; at 10 µM) is reported as 99%.

Cc1c(C#N)oc2c(-c3ccc(F)cc3)c(-c3ccc(S(N)(=O)=O)cc3)nn12 [Example 59, 6-(4-(Aminosulphonyl)phenyl)-2-cyano-7-(4-Fluorophenyl)-3-methyl-pyrazolo[5,1-b][1,3]oxazole] was tested, and the inhibition at 0.1 µM [2] was 51% and the inhibition at 100 µM [3] was 96%.

Compound CS(=O)(=O)c1ccc(-c2nn3c(c2-c2ccc(F)cc2)OCc2ccccc2-3)cc1 [Example 6, 3-(4-Fluorophenyl)-2-(4-(methylsulphonyl)phenyl)-5H-pyrazolo[1,5-b][1,3]-benzoxazine] has an inhibition at 0.1 µM [2] of 82% and an inhibition at 100 µM [3] of 25%.

Cc1oc2c(-c3ccc(F)cc3)c(-c3ccc(S(C)(=O)=O)cc3)nn2c1-c1ccccc1 [Example 41, 7-(4-Fluorophenyl)-2-methyl-6-(4-(methylsulphonyl)phenyl)-3-phenylpyrazolo[5,1-b][1,3]oxazole] gave a WISH percent inhibition ([1]; at 0.1 (nM)) of 33% and a WISH percent inhibition ([1]; at 1 (nM)) of 52%.

For Cc1c(C#N)oc2c(-c3ccc(F)cc3)c(-c3ccc(S(C)(=O)=O)cc3)nn12 [Example 54, 2-Cyano-7-(4-fluorophenyl)-3-methyl-6-(4-(methylsulphonyl)phenyl)pyrazolo[5,1-b][1,3]oxazole], the IC50 ([1]; Homo sapiens) was 0.2 nM.

CS(=O)(=O)c1ccc(-c2nn3c4c(oc3c2-c2ccc(F)cc2)CCCC4)cc1 [Example 42, 3-(4-Fluorophenyl)-2-(4-(methylsulphonyl)phenyl)-5,6,7,8-tetrahydropyrazolo[5,1-b][1,3]benzoxazole] was tested, and the WISH percent inhibition ([1]; at 0.01 (nM)) was 37%, the WISH percent inhibition ([1]; at 0.1 (nM)) was 81% and the inhibition at 0.1 µM [2] was 86%. For the same compound, the inhibition at 100 µM [3] was 23%.

CCc1coc2c(-c3ccc(F)cc3)c(-c3ccc(S(C)(=O)=O)cc3)nn12 [Example 61, 3-Ethyl-7-(4-fluorophenyl)-6-(4-(methylsulphonyl)phenyl)pyrazolo[5,1-b][1,3]oxazole] showed an inhibition at 0.1 µM [2] of 94% and an inhibition at 100 µM [3] of 23%.

CS(=O)(=O)c1ccc(-c2nn3c(c2-c2ccc(F)cc2)OCC=CC3)cc1 [Example 4, 3-(4-Fluorophenyl)-2-(4-methylsulponylphenyl) -5,8-dihydropyrazolo[5,1-b][1,3]oxazepine] gave an inhibition at 10 µM [2] of 62% and an inhibition at 100 µM [3] of 12%.

CCc1coc2c(-c3ccc(F)cc3)c(-c3ccc(S(N)(=O)=O)cc3)nn12 [Example 62, 6-(4-(aminosulphonyl)phenyl)-3-Ethyl-7-(4-fluorophenyl)pyrazolo[5,1-b][1,3]oxazole] showed an IC50 ([1]; Homo sapiens) of 0.21 nM, an IC50 [2] of 2 nM and an inhibition at 100 µM [3] of 91%.

Work on CS(=O)(=O)c1ccc(-c2nn3c(c2-c2ccc(F)cc2)OCCCC3)cc1 [Example 2, 3-(4-Fluorophenyl)-2-(4-(methylsulphonyl)phenyl)-5,6,7,8-tetrahydropyrazolo[5,1-b][1,3]oxazepine] yielded an inhibition at 10 µM [2] of 57% and an inhibition at 100 µM [3] of 9%.

In the case of CC=CC(=O)c1oc2c(-c3ccc(F)cc3)c(-c3ccc(S(C)(=O)=O)cc3)nn2c1C [Example 58, 1-[7-(4-Fluorophenyl)-3-methyl-6-(4-(methylsulphonyl)phenyl)pyrazolo[5,1-b][1,3]oxazol-2-yl]but-2-en-1-one], the WISH percent inhibition ([1]; at 0.1 (nM)) is reported as 84 @ 0.1%.

CS(=O)(=O)c1ccc(-c2nn3c(c2-c2ccc(F)cc2)OCc2ccccc2C3)cc1 [Example 3] was tested, and the “CIP Inh @10mpk” value [4] was 3%, the inhibition at 0.01 µM ([1]; Homo sapiens, at 10 nM, read-out: WISH percent inhibition) was 43% and the IC50 [2] was 90 nM. It also gave an inhibition at 100 µM [3] of 20%.
